Reference: US4271073A, “6-Substituted-9-(2-hydroxyethyl)-1,2,3,4-tetrahydro carbazol-1-one” (Cassella Aktiengesellschaft, priority 1979, dated 1981)

Experiment: Antagonism Tetrabenazine (antidepressive action)
Assay type: in vivo
Details: species, route and unit inferred, read-out: ED50 Antagonism Dosage Tetrabenazine

| SMILES | ED50 [mg/kg] |
| --- | --- |
| Cc1ccc2c(c1)c1c3n2CCNC3CCC1.Cl (stereo not drawn) [8-methyl-2,3,3a,4,5,6-hexahydro-1H-pyrazino[3,2,1-jk]carbazole-hydrochloride, reference compound] | 14 |
| Cc1ccc2c(c1)c1c3n2CCN=C3CCC1.Cl [Example 1, 8-methyl-2,4,5,6-tetrahydro-1H-pyrazino[3,2,1-jk]carbazole-hydrochloride] | 4 |
| COc1ccc2c(c1)c1c3n2CCN=C3CCC1.Cl [Example 2, 8-methoxy-2,4,5,6-tetrahydro-1H-pyrazino[3,2,1-jk]carbazole-hydrochloride] | 2 |
